target: Hypoxia-inducible factor 1-alpha inhibitor (Homo sapiens, UniProt Q9NWT6); assay: Inhibition of human recombinant FIH1
Sequence (Q9NWT6 whole entry): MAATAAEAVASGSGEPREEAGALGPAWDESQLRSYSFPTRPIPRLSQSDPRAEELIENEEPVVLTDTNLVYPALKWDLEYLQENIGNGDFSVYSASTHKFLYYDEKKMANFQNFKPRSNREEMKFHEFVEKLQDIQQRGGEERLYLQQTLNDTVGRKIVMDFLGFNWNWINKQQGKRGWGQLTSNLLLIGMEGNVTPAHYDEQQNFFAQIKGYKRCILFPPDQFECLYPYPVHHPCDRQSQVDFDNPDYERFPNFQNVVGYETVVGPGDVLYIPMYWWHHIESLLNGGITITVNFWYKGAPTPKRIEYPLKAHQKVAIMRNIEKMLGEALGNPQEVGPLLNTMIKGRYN

SMILES | IC50
COc1ccccc1OCc1cn2c(-c3ccc4ccccc4n3)nnc2s1 | 41.4 µM
COc1cccc(/C=C2\SC(=S)N(CCC(=O)Nc3cccc4nonc34)C2=O)c1 | 73.1 µM
O=C(O)CCN1C(=O)/C(=C\c2ccc(-c3ccc(Cl)cc3)o2)SC1=S | 66 µM
O=C(CCN1C(=O)/C(=C\C=C\c2ccco2)SC1=S)Nc1cccc2nonc12 | 48.6 µM
COc1cccc(/C=C2\SC(=S)N(CC(=O)Nc3cccc4nonc34)C2=O)c1 | 45.3 µM
COc1ccccc1/C=C/c1cn2c(-c3ccc4ccccc4n3)nnc2s1 | 47.5 µM
COc1ccccc1/C=C1\SC(=S)N(CCC(=O)Nc2ccc(S(N)(=O)=O)cc2)C1=O | 32.1 µM
CCSc1ccc(-c2nn(-c3ccccc3)cc2/C=C2/SC(=S)N(CC(=O)O)C2=O)cc1 | 36.2 µM
